# Data: paper PMC11247486, “Improving the In Vivo Stability of [^52Mn]Mn(II) Complexes with 18-Membered Macrocyclic Chelators for PET Imaging” (Journal of Medicinal Chemistry, 2024)
# Read-outs that look alike come from different tables or passages of the source.
# Tests used:
# [1] = cited from earlier work
# [2] = Ex vivo biodistribution after PET/CT; format: in vivo, mice
# Procedure: [^52Mn]Mn-CHXPYAN and [^52Mn]Mn-PYAN radiocomplexes were evaluated in vivo through 90 min dynamic PET/CT imaging of heathy mice followed by an ex vivo biodistribution analysis. Similarly, [^52Mn]MnCl2 was also studied as a control.
# [^52Mn]Mn-CHXPYAN and [^52Mn]Mn-PYAN were synthesized with molar specific activities of 80 and 60 MBq/μmol, respectively. 1.04 ± 0.07 MBq (28 ± 2 μCi) of the radiocomplexes in 100 μL injection doses was prepared. The mice (n = 4 per group) were anesthetized with 2.5% isoflurane in oxygen and were injected via the retroorbital sinus. For comparison purposes, 1.04 ± 0.07 MBq (28 ± 2 μCi) of [^52Mn]MnCl2, pH 7 was also injected. After injection, mice were imaged on a Sofie GNEXT PET/CT scanner for a 90 min dynamic scan (9 frames of 10 min each) followed by a 3 min CT at 80 kVp for anatomical reference. PET images were reconstructed via 3D-OSEM (Ordered Subset Expectation Maximization) algorithm (24 subsets and 3 iterations), with random, attenuation, and decay correction, and CT was reconstructed with the modified Feldkamp algorithm and analyzed using VivoQuant 4.0 (Invicro Imaging Service and Software, Boston MA) software. After imaging, mice were euthanized, and organs were collected, weighed, and counted for associated radioactivity on an automated gamma counter. Radioactivity uptake was calculated as the percent injected dose per gram of tissue (% ID/g). Following the reconstruction of the images, ROIs (heart, liver, kidneys, muscle, and bone) were hand-drawn to determine the SUVs using the VivoQuant imaging software.
# [3] = mice; cited from earlier work
# [4] = cited from earlier work; for pMn: [Mn^2+] = [L] = 10 μM at pH = 7.4
# [5] = cited from earlier work; remark: listed apart in the source
# [6] = Transmetalation (dissociation) kinetics of the Mn(II) complexes with Cu2+; format: physicochemical; details: 0.15 M NaCl, 25 °C
# Procedure: There is a wide consensus among the coordination chemistry community that kinetic inertness is more important for the safe use of metal complexes for imaging applications than thermodynamic stability.[8],[49],[50] Thus, we conducted a detailed investigation of the transmetalation kinetics of the Mn-PYAN and Mn-CHXPYAN complexes, by following their exchange reactions with Cu^2+ in the pH range of 2.5–4.5 (eq 3). [drawing 3] 3
# All reactions were carried out in the presence of a large excess of Cu^2+ in order to guarantee the pseudo-first-order kinetic conditions. The transmetalation of Mn-PYAN in the pH range ∼2.0–4.5 is very fast, and thus the rates of the reactions were measured using the stopped-flow technique. Conversely, the exchange reactions of the Mn-CHXPYAN complex are slow and could be studied by using conventional methods. The transmetalation reactions of Mn-PYAN and Mn-CHXPYAN were monitored by following the formation of the corresponding Cu(II) complexes at 295 nm.
# The kd values increase upon increase in [H^+] and are independent of the concentration of Cu^2+ as it was found for Mn-PCTA, Mn-PC3AM, and Mn-bispidine complexes.[49],[51] […] The increase in the kd values with increasing H^+ concentration can be interpreted in terms of the extremely slow spontaneous (k0, eq 4) and the proton-assisted (k*[Mn(HL), eq 6) dissociation of Mn(II) complexes. The saturation behavior of the plots of kd versus [H^+] (Figure 5) is characteristic for the equilibrium formation and the accumulation of the *[Mn(HL)] intermediate characterized by the *KH protonation constant (eq 5). The analysis of the rate constants obtained for Mn-CHXPYAN indicates a second-order dependence of kd on [H^+], which can be explained by the proton-assisted dissociation of the *[Mn(HL)] intermediate (k^H*[Mn(HL)], eq 7). [drawing 4] 4 [drawing 5] 5 [drawing 6] 6 [drawing 7] 7
# In the presence of excess of the exchanging ion, the transmetalation can be treated as a pseudo-first-order process, and the rate of reactions can be expressed with eq 8, where kd is a pseudo-first-order rate constant and [MnL]t is the total concentration of the complex. [drawing 8] 8
# Through consideration of all the possible pathways, the rate of the transmetalation of Mn-PYAN and Mn-CHXPYAN with Cu^2+ can be expressed by eq 9 [drawing 9] 9 Considering the total concentration of the Mn(II) complex ([MnL]t = [MnL] + [*Mn(HL)], as well as the equation defining the protonation constant for the formation of the *[Mn(HL)] intermediate (eq 5) and eq 8, the pseudo-first-order rate constant can be expressed as follows [drawing 10] 10 where k1 = k*[Mn(HL)] × *KH and k2 = k^H*[Mn(HL)] × *KH. The rate and protonation constants characterizing the transmetalation of Mn-PYAN and Mn-CHXPYAN with Cu^2+ have been calculated by fitting the kd values presented in Figure 5 to eq 10 and the values obtained are compared with the corresponding values of Mn-DOTA, Mn-DO3A, Mn-PCTA, Mn-PC3AM^H, and Mn-bispidine in Table 3.
# Rates of the metal exchange reactions of Mn-PYAN and Mn-CHXPYAN with Cu^2+ were measured by spectrophotometry by following the formation of the related Cu(II) complexes at 295 nm with an Applied Photophysics DX-17MV stopped-flow instrument and PerkinElmer Lambda 365 UV–vis spectrophotometer using 1.0 cm cells, respectively. The concentration of Mn-PYAN and Mn-CHXPYAN was 1.0 × 10^–4 M, whereas the concentration of Cu^2+ was 10 and 20 times higher in order to guarantee pseudo-first-order conditions. The temperature was maintained at 25 °C and the ionic strength of the solutions was kept constant with 0.15 M NaCl. The exchange rates were studied in the pH range of ca. 2.0–4.5. To keep the pH values constant, monochloroacetic acid (pH range 2.0–3.3), 1,4-dimethylpiperazine (pH range 3.3–4.1), and N-methylpiperazine (pH range 4.1–4.5) buffers were used (0.01 M). […]
# [7] = pH-potentiometric titrations, ligand protonation constants; format: physicochemical; details: 0.15 M NaCl, 25°C
# Procedure: Chelator protonation constants (log Ki^H) defined by eq 1 were determined using pH-potentiometric titrations, which afforded four protonation constants for each chelator attributed to the protonation of the amine N atoms (Table 2, and standard deviations are shown in parentheses). [drawing 1] 1 where i = 1, 2...4. The first two protonation constants adopt nearly identical values for both chelators, while the third and fourth protonation constants are much lower for CHXPYAN than for PYAN, which is consistent with the results obtained by Jackels et al.[25] The high rigidity of CHXPYAN likely forces the protonated amines to be placed at a shorter distance than in PYAN, reducing the values of log K3^H and log K4^H for the cyclohexyl derivative due to electrostatic effects. […] The structurally related 18-membered macrocycle 18-ane-N6 is characterized by a higher basicity compared with PYAN and CHXPYAN, as expected due to the increased number of amine N atoms and its higher flexibility.[43]
# (§1) The protonation constants of PYAN and CHXPYAN and the stability constants of Mn(II) complexes were determined by pH-potentiometric titrations. The metal-to-ligand concentration ratio was 1:1 (the concentration of the ligand was generally 0.002 M). For the pH measurements and titrations, a Metrohm 888 Titrando titration workstation and Metrohm-6.0234.110 combined electrode was used. Equilibrium measurements were carried out at a constant ionic strength (0.15 M NaCl) in 6 mL samples at 25 °C. The solutions were stirred, and N2 was bubbled through them. The titrations were made in the pH range of 1.7–12.0. KH-phthalate (pH = 4.005) and borax (pH = 9.177) buffers were used to calibrate the pH meter. For the calculation of [H^+] from the measured pH values, the method proposed by Irving et al. was used as follows.[59] A 0.01 M HCl solution was titrated with a standardized NaOH solution at 0.15 M NaCl ionic strength. The differences (A) between the measured (pHread) and calculated pH (−log[H^+]) values were used to obtain the equilibrium H^+ concentration from the pH values measured in the titration experiments (A = 0.04). For the equilibrium calculations, the stoichiometric water ionic product (pKw) was also needed to calculate the [OH^–] values under basic conditions. The VNaOH – pHread data pairs of the HCl–NaOH titration obtained in the pH range of 10.5–12.0 were used to calculate the pKw value (pKw = 13.77). The protonation and stability constants were calculated with the PSEQUAD program.[60]
# [8] = pH-potentiometric titrations, stability constants of the Mn(II) complexes; format: physicochemical; details: 0.15 M NaCl, 25°C
# Procedure: The stability constants of the Mn(II) complexes with PYAN and CHXPYAN defined by eq 2 were also determined through pH-potentiometric titrations. [drawing 2] 2
# as §1
# [9] = Mn(II) complex, 0.15 M NaCl, 25 °C
# [10] = healthy mice, 1.5 h postinjection, mean ± SD, n = 4
# [11] = Mn(II) complex, 0.1 M Me4NCl, 25 °C
smiles,measurement,setting,value
"O=C(O)CN1CCNCCN(CC(=O)O)CCN(CC(=O)O)CC1 [DO3A^3–, 1,4,7,10-tetraazacyclododecane-1,4,7-triacetate]",k1,[1]; [9],0.45 M^–1 s^–1
same,k2,[1]; [9],3.2 × 10^2 M^–2 s^–1
same,kd at pH = 7.4,[1]; [9],1.8 × 10^–8 s^–1
"[52Mn+2].[Cl-].[Cl-] [[^52Mn]MnCl2, reference compound]","Biodistribution, Blood",[2]; [10],0.60 ± 0.11 % ID/g
same,"Biodistribution, Brain",[2]; [10],0.54 ± 0.26 % ID/g
same,"Biodistribution, Fat",[2]; [10],1.12 ± 0.53 % ID/g
same,"Biodistribution, Femur",[2]; [10],2.42 ± 0.36 % ID/g
same,"Biodistribution, Heart",[2]; [10],12.14 ± 7.31 % ID/g
same,"Biodistribution, Kidney",[2]; [10],38.14 ± 6.06 % ID/g
same,"Biodistribution, Liver",[2]; [10],13.00 ± 6.07 % ID/g
same,"Biodistribution, Muscle",[2]; [10],0.25 ± 0.13 % ID/g
same,"Biodistribution, Skin",[2]; [10],0.31 ± 0.11 % ID/g
same,"Biodistribution, Spleen",[2]; [10],4.83 ± 2.04 % ID/g
same,"Biodistribution, Stomach",[2]; [10],4.78 ± 3.02 % ID/g
same,"Biodistribution, L. Intestine","[2]; mouse, in vivo, 1.5 h",6.48 ± 1.56 % ID/g
same,"Biodistribution, S. Intestine","[2]; mouse, in vivo, 1.5 h",14.23 ± 5.70 % ID/g
same,"uptake, heart",[3],16.01 ± 0.1 % ID/g
same,"uptake, kidney",[3],29.9 ± 9.6 % ID/g
same,"uptake, liver",[3],9.6 ± 1.9 % ID/g
same,"uptake, pancreas",[3],4.1 ± 1.1 % ID/g
same,"uptake, spleen",[3],4.2 ± 0.6 % ID/g
"O=C(O)CN(CCN(CC(=O)O)CC(=O)O)CCN(CC(=O)O)CC(=O)O [DTPA^5–, diethylenetriamine-N,N,N′,N″,N″-pentaacetate, reference compound]",log KMnL,"[4]; 0.15 M NaCl, 25°C",14.54
same,pMn,[4]; 0.15 M NaCl,7.95
same,log K1^H,"[5]; 0.15 M NaCl, 25°C",9.97
same,log K2^H,"[5]; 0.15 M NaCl, 25°C",8.40
same,log K3^H,"[5]; 0.15 M NaCl, 25°C",4.18
same,log K4^H,"[5]; 0.15 M NaCl, 25°C",2.68
same,log K5^H,"[5]; 0.15 M NaCl, 25°C",2.01
same,log K6^H,"[5]; 0.15 M NaCl, 25°C",1.36
O=C([O-])CN(CCN(CC(=O)[O-])CC(=O)[O-])CCN(CC(=O)[O-])CC(=O)[O-].[Mn+2] [Mn-DTPA],time at which complex dissociation in the presence of Cu^2+ is complete (dead time of the stopped-flow technique),[1],≤ 2 ms
NC(=O)CN1CCN(CC(N)=O)Cc2cccc(n2)CN(CC(N)=O)CC1 [PC3AM^H],k1,[1]; [9],1.7 × 10^–2 M^–1 s^–1
same,kd at pH = 7.4,[1]; [9],4.3 × 10^–10 s^–1
"c1cc2nc(c1)CNCCNCc1cccc(n1)CNCCNC2 [PYAN, 3,6,10,13-tetraaza-1,8(2,6)-dipyridinacyclotetradecaphane]",k1,[6]; Mn(II) complex of the chelator,827 ± 54 M^–1 s^–1
same,kd at pH = 7.4,[6]; Mn(II) complex of the chelator,3.3 × 10^–5 s^–1
same,log*KH,[6]; protonation constant of the *[Mn(HL)] intermediate,2.23 (4)
same,log KMnL,[4]; 0.1 M KNO3,11.79
same,log KMnL,[4]; 0.2 M KCl,12.5
same,log K1^H,[5]; 0.1 M KNO3,8.99
same,log K2^H,[5]; 0.1 M KNO3,8.22
same,log K3^H,[5]; 0.1 M KNO3,6.03
same,log K4^H,[5]; 0.1 M KNO3,5.34
same,log K1^H,[5]; 0.2 M KCl,9.13
same,log K2^H,[5]; 0.2 M KCl,8.32
same,log K3^H,[5]; 0.2 M KCl,6.12
same,log K4^H,[5]; 0.2 M KCl,5.24
same,log K1^H,[7],9.02(1)
same,log K2^H,[7],8.27(1)
same,log K3^H,[7],6.06(1)
same,log K4^H,[7],5.18(2)
same,pMn,[8]; pMn = −log[Mn]free when [Mn^2+] = [L] = 10 μM at pH = 7.4,7.18
same,log KMnL,[8]; stability constant of the Mn(II) complex,11.93(3)
"C1CNCCNCCNCCNCCNCCN1 [18-ane-N6, 1,4,7,10,13,16-Hexa-Azacyclo-Octadecane, reference compound]",log KMnL,"[4]; 0.2 M NaClO4, 25°C",10.5
same,pMn,[4]; 0.2 M NaClO4,5.05
same,log K1^H,"[5]; 0.2 M NaClO4, 25°C",10.19
same,log K2^H,"[5]; 0.2 M NaClO4, 25°C",9.23
same,log K3^H,"[5]; 0.2 M NaClO4, 25°C",8.73
same,log K4^H,"[5]; 0.2 M NaClO4, 25°C",4.09
same,log K5^H,"[5]; 0.2 M NaClO4, 25°C",2
same,log K6^H,"[5]; 0.2 M NaClO4, 25°C",<1
"O=C(O)CN1CCN(CC(=O)O)CCN(CC(=O)O)CCN(CC(=O)O)CC1 [DOTA^4–, 1,4,7,10-tetraazacyclododecane-1,4,7,10-tetraacetate]",k0,"[1]; Mn(II) complex of the chelator, 0.1 M Me4NCl, 25 °C",1.8 × 10^–7 s^–1
same,kd at pH = 7.4,"[1]; Mn(II) complex, 0.1 M Me4NCl, 25 °C, calculated using a Zn^2+ concentration of 10^–5 M",1.8 × 10^–7 ^a s^–1
same,k1,[1]; [11],4.0 × 10^–2 M^–1 s^–1
same,k2,[1]; [11],1.6 × 10^3 M^–2 s^–1
same,k3^Zn,[1]; [11],1.5 × 10^–5 M^–1 s^–1
same,log*KH,[1]; [11],4.26
